From patent US10695346B2, “4,6-pyrimidinylene derivatives and uses thereof” (Dana-Farber Cancer Institute, Inc., priority 2015, dated 2020) come the findings set out here.

One experiment has as its target T1, PIP4K2A (Homo sapiens, UniProt P48426).
T1 sequence (P48426 1-406): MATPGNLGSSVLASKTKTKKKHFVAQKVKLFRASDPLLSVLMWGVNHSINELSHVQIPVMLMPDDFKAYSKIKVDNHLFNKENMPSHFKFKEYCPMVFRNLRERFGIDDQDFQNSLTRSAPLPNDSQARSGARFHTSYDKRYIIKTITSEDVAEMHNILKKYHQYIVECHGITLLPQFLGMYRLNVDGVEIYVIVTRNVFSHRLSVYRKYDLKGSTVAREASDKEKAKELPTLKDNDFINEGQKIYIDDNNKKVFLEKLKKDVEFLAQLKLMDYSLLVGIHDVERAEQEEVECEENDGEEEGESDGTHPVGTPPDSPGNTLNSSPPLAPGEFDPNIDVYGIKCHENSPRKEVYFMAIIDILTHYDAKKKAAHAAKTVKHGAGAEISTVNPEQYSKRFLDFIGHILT
The experiment in a line: ADP-GLO assay on PIP4K2A. The conditions noted are these: 0.01 mM ATP, 0.05 mM diC8 PI(5)P. It is filed as biochemical. As for the experimental part: After a further incubation of 40 minutes, 40 μl of Kinase Detection Buffer was added. After a further incubation of 40 min, the […] was read on […] ENVISION for 1 sec/well.

The subject of experiment [1] is TP53 wild type MCF7 cells. In words: Cell proliferation assay (Cell TITER-GLO). The conditions noted are these: even at 5 μM; FIG. 3D.
Method: To determine cell proliferation, cells were plated at 2×10^3 cells per well of 96-well plate. Cells were incubated and assayed at indicated times using Cell TITER-GLO Luminescent Cell Viability assay (Promega). Cells were allowed to equilibrate to room temperature for 15 minutes, then an equal volume of the Cell TITER-GLO reagent was added to wells and incubated for 15 minutes on an orbital shaker. Luminescence was recorded according to the manufacturer's protocol.

The term IC50 denotes the concentration at which inhibition is half-maximal.

For the compound `CN(C)C/C=C/C(=O)NC1CCCC(C(=O)Nc2cccc(Nc3cc(-c4cnc5[nH]ccc5c4)ncn3)c2)C1` (centres unmarked) [THZ-CE-A-4-9, (E)-N-(3-((6-(1H-pyrrolo[2,3-b]pyridin-5-yl)pyrimidin-4-yl)amino)phenyl)-3-(4-(dimethylamino)but-2-enamido)cyclohexane-1-carboxamide], on PIP4K2A, the IC50 is 250 nM. For the compound `CN(C)C/C=C/C(=O)Nc1ccc(C(=O)Nc2cccc(Nc3cc(-c4cnc5[nH]ccc5c4)ncn3)c2)cc1` [Compound 8, (E)-N-(3-((6-(1H-pyrrolo[2,3-b]pyridin-5-yl)pyrimidin-4-yl)amino)phenyl)-4-(4-(dimethylamino)but-2-enamido)benzamide], the “inhibition of TP53 wild type MCF7 cells” value in experiment [1] is “didn't inhibit”.
